The assay has as its target Tyrosine-protein phosphatase non-receptor type 7 (Homo sapiens) (UniProt P35236). Briefly: inhibition of hematopoietic tyrosine phosphatase HePTP – biochemical, set 2, SAR follow-up (AID 449736). To be noted: recombinant HePTP phosphatase activity.

Each structure is given as a SMILES string.

Sequence of Tyrosine-protein phosphatase non-receptor type 7 (Homo sapiens) (P35236 whole entry, looked up): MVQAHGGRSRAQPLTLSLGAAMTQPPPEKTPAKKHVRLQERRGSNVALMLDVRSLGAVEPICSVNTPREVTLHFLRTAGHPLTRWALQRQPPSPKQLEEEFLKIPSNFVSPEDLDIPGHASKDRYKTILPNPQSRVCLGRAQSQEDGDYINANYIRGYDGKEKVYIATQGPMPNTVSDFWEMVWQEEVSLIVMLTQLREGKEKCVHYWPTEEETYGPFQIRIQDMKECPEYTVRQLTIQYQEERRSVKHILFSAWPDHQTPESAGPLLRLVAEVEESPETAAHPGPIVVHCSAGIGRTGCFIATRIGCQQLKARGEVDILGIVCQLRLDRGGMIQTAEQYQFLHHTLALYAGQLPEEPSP

Regarding `COc1cc(/C=C2\SC(=O)N(CC(=O)Nc3cccc(C)c3)C2=O)cc(Cl)c1OCC(=O)O`, the IC50 was 3.61 µM.

For the origin of these results see PubChem BioAssay AID449736 (Sanford-Burnham Center for Chemical Genomics, 2010).
